# Laboratory results published in patent publication US12404303B2, “Polypeptide and use thereof” (NANJING ANJI BIOLOGICAL TECHNOLOGY CO., LTD., priority 2019, dated 2025).
# No end group written: not given here.
# Columns and labels:
# protozoa = assay: Mouse pneumonia model, protozoal pneumonia; type: in vivo, BALB/C mice; details: average values±standard deviation
# Excerpt: (§1) A mouse pneumonia model was successfully established by using a nasal drip method. BALB/C mice with a body weight of 18-24 g were selected, and then anesthetized with ether on day 0, day 1 and day 2, respectively, prepared streptococcus pneumoniae bacteria solution, adenovirus concentrated solution, mycoplasma pneumoniae, chlamydia pneumoniae, protozoa and pneumonia fungi were slowly dropped into the nasal cavity of the mice, so that the bacteria solutions entered the trachea and bronchi, and the bacteria solutions were prevented from flowing into the esophagus during the operation to avoid inactivation of the bacteria solutions, so that the mouse pneumonia model was established. After the model was successfully established, the polypeptide according to the present disclosure was administered, as shown in FIG. 7 and Table 9. […] The experimental results are represented on the basis of average values±standard deviation.
# pneumonia fungi = assay: Mouse pneumonia model, fungal pneumonia; type: in vivo, BALB/C mice; details: average values±standard deviation
# Excerpt: as §1
# LX-2 cells = assay: Proliferation of LX-2 cells induced by TGF-β1 (MTT, in vitro hepatic fibrosis model); type: cell-based; details: polypeptide 1 μmol/L, TGF-β1 10 ng/mL, 48 hours
# Protocol: LX-2 cells were cultured in 1640 medium containing 10% FBS, and cultured in an incubator with 5% CO2 at 37° C. The medium was replaced every two days, and subcultured according to the cell density. The LX-2 cells in a logarithmic growth phase were digested with 0.25% pancreatin to make cell suspension. The density of the cells was adjusted to 4×10^5 cells/mL, and the cells were inoculated into 96-well plates with 100 μL per well and cultured overnight. On the second day, TGF-β1 was added to induce the proliferation and activation of the LX-2 cells, and the polypeptide drugs were administrated at 1 μmol/L. TGF-β1 (10 ng/mL) was added to each group except the blank group. The cells were cultured in the incubator for 48 hours, and then 10 μL of MTT was added to each well. The MTT was removed after 4 hours, and 150 μL of DMSO was added for reaction for 5 min. An OD value was measured by a microplate reader at 570 nm.
# pulmonary infections = assay: Mouse pneumonia model, pneumonia caused by pulmonary infections; type: in vivo, BALB/C mice; details: average values±standard deviation
# Excerpt: as §1
# myelofibrosis model mice = assay: Myelofibrosis model induced by rh EPO; type: in vivo, Kunming mice; parameters: WBC / Hb / MCV / RDW: unit not given here; details: peripheral blood; 10 mg/kg subcutaneous twice a day, 28 days
# Protocol: There were 10 mice in each group. The normal control group was injected with normal saline (0.3 mL for each mouse), and the remaining groups were injected with rh EPO (0.1 unit/gram, body weight, 0.3 mL for each mouse) intraperitoneally every day. After induction for two days, drug therapy was started, subcutaneous injection was given twice a day, and after continuous administration for 28 days, the mouse heart was punctured for blood extraction, some blood was used for peripheral blood analysis, some blood was centrifuged, and the supernatant was taken to measure the content of TGF-β1 in the serum of mice. [table]
# [1] = tested on: SD rats with bleomycin-induced pulmonary fibrosis; assay: Bleomycin-induced pulmonary fibrosis animal model; type: in vivo; details: bleomycin 5 mg/kg intratracheal, polypeptides 7.5 mg/kg subcutaneous twice a day, positive drug 25 mg/kg intragastric once a day, 14 days
# Protocol: SD rats were anesthetized by intraperitoneal injection of 1 mL/100 g 4% chloral hydrate. After anesthesia, the rats were fixed and their necks were disinfected by using cotton with 75% alcohol. The skin of the rat neck was longitudinally cut with scissors, and the fascia and muscle were longitudinally bluntly torn with tweezers to expose the trachea. A syringe was inserted into the trachea to inject 5 mg/kg bleomycin, while a blank group was injected with an equal amount of normal saline. Then a rat plate was quickly erected and rotated, the rats' breathing was observed, the neck wound was sterilized after rotation and was sewn, and an amoxicillin anti-inflammatory drug was sprinkled on the suture. After the operation, the rats were put back into a dry and clean cage for resting, waiting was performed for awakening. The rats were awakened after about 1-2 hours, and then fed normally. On the 7th day after modeling, modeling group animals randomly fell into a model group, a Nintedanib positive drug group, polypeptide I, II, III and IV dosage groups, and a normal control group, and the groups were administered separately for an administration cycle of 14 days. Living situations of rats were observed every day and their weights were weighed.
# adenovirus = assay: Mouse pneumonia model, viral pneumonia; type: in vivo, BALB/C mice; details: average values±standard deviation
# Excerpt: as §1
# skin fibrosis model mice = assay: Skin fibrosis model induced by bleomycin, HYP in skin tissue; type: in vivo, C57/BL black mice; details: skin tissue of the mouse back; 10 mg/kg subcutaneous twice a day, 28 days, vs model group; FIG. 6
# Protocol: Bleomycin (10 μg/mL) was injected subcutaneously every day for 28 days to form skin fibrosis. During the modeling period, the administration groups were given polypeptide drugs every day for treatment, with 10 mice in each group. After modeling, the mice were killed on the next day, and the skin tissue of the mouse back was taken to detect the content of HYP in the skin tissue. [table]
# [2] = tested on: SD rats with renal fibrosis; assay: Renal fibrosis animal model (ureter ligation), TGF-β1 in serum; type: in vivo; details: 7.5 mg/kg subcutaneous twice a day, 14 days, vs model group; FIG. 4
# Protocol: A renal fibrosis animal model was established. SD rats were anesthetized with 4% chloral hydrate, injected with 1 mL/100 g intraperitoneally, fixed to an operation board, and sterilized in an operation area for later use. […] Muscular layers and abdominal walls were sewed layer by layer, the suture was disinfected with alcohol. After SD rats woke up, the rats were put into a cage for feeding. In the blank group, ureter was not ligated, and other steps were the same. Then, the animals fell into a blank group, a model group, and polypeptide administration groups, and the administration was started on the second day after the operation, twice a day for 14 days. After administration for 14 days, blood was taken and supernatant was taken to detect the content of TGF-β1 in serum. [table]
# [3] = tested on: cardiac fibroblasts of rats; assay: Proliferation of cardiac fibroblasts of rats (MTT, in vitro myocardial fibrosis model); type: cell-based; details: 1 μmol/L
# Protocol: The inhibitory effect of a polypeptide on cardiac fibroblasts of rats was detected by MTT assay. Cells were cultured in a DMEM medium containing 10% of FBS, the cytoplasm was made into 1×10^5/mL cell suspension, and 100 μL per well was inoculated into a 96-well plate. After the cells adhered to the wall, the medium was replaced with a serum-free DMEM medium, and the serum-free medium was discarded after 24 hours. The cells were cultured with different polypeptides of 1 μmol/L, and 5 multiple wells were set for each concentration. After 12, 24 and 48 hours separately, 10 μL of MTT was added to each well. After 4 hours, MTT was sucked out, and 150 μL of DMSO was added to each well. After reaction for 5 min, an OD value was measured at 570 nm by a microplate reader.
# chlamydia pneumoniae = assay: Mouse pneumonia model, chlamydia pneumonia; type: in vivo, BALB/C mice; details: average values±standard deviation
# Excerpt: as §1
# mycoplasma pneumoniae = assay: Mouse pneumonia model, mycoplasma pneumonia; type: in vivo, BALB/C mice; details: average values±standard deviation
# Excerpt: as §1
# streptococcus pneumoniae = assay: Mouse pneumonia model, bacterial pneumonia; type: in vivo, BALB/C mice; details: average values±standard deviation
# Excerpt: as §1
sequence,measurement,setting,value
RGADRAGGGGPRCWCGE (cysteine pairing not given here) [Polypeptide II],"Inhibitory effect on pulmonary infections, Protozoal pneumonia",protozoa,63.60 ± 6.16
same,"Inhibitory effect on pulmonary infections, Fungal pneumonia",pneumonia fungi,65.32 ± 3.07
same,"inhibition of proliferation and activation of LX-2 cells, difference from model group",LX-2 cells,highly significantly different from the model group (**P<0.01)
same,OD value,"LX-2 cells; MTT, 570 nm",0.59 ± 0.02
same,"Inhibitory effect on pulmonary infections, Pneumonia caused by pulmonary infections",pulmonary infections,66.15 ± 5.87
same,Hb,myelofibrosis model mice,151 ± 19
same,MCV,myelofibrosis model mice,51 ± 9
same,RDW,myelofibrosis model mice,26 ± 3
same,WBC,myelofibrosis model mice,5.61 ± 1.43
same,Survival rate (%),[1],85.7%
same,"Inhibitory effect on pulmonary infections, Viral pneumonia",adenovirus,70.33 ± 9.27
same,expression of HYP in the skin tissue,skin fibrosis model mice,highly significantly different from the model group (***P<0.001)
same,content of TGF-β1 in serum,[2],highly significantly different from the model group (***P<0.001)
same,"Optical density values, 12 hours","[3]; 12 hours, MTT, 570 nm",0.325 ± 0.004
same,"Optical density values, 24 hours","[3]; 24 hours, MTT, 570 nm",0.377 ± 0.015
same,"Optical density values, 48 hours","[3]; 48 hours, MTT, 570 nm",0.518 ± 0.015
same,inhibition of the proliferation of cardiac fibroblasts of rats,[3]; at 24 hours and 48 hours,could inhibit the proliferation
same,"Inhibitory effect on pulmonary infections, Chlamydia pneumonia",chlamydia pneumoniae,57.81 ± 5.21
same,"Inhibitory effect on pulmonary infections, Mycoplasma pneumonia",mycoplasma pneumoniae,54.69 ± 5.72
same,"Inhibitory effect on pulmonary infections, Bacterial pneumonia",streptococcus pneumoniae,49.25 ± 9.48
